From article PMC10940318, “Targeted intracellular delivery of dimeric STINGa by two pHLIP peptides for treatment of solid tumors” (Frontiers in Pharmacology, 2024)

Legend:
[1] = system: THP-1-Blue-ISG cells polarized into M2-type macrophages; assay: Activation of IFN (IRF-SEAP reporter) in M2-polarized macrophages; assay type: cell-based, human; conditions: THP1-Blue-ISG cells polarized by PMA, IL-4/IL-13, 2 h in DMEM without FBS pH 6.9, then 48 h, QUANTI-Blue, absorbance 655 nm, read-out: EC50 of activation of IRF signaling
Procedure: THP-1-Blue™-ISG cells (Invivogen) expressing an interferon (IFN) regulatory factor (IRF)-inducible secreted embryonic alkaline phosphatase (SEAP) reporter construct were used. Cells were maintained in RPMI growth medium supplemented with L-glutamine, sodium pyruvate, 10% fetal bovine serum (FBS), normocin and ciprofloxacin hydrochloride in a humidified atmosphere of 5% CO2 and 95% air at 37°C. Cells were seeded in 96-well plates at a density of 75,000 cells/well. To generate M2 polarized macrophages, cells were treated first with 185 ng/mL phorbol 12-myristate 13-acetate (PMA) for 6 h and then 20 ng/mL of interleukin 4 (IL-4) and 20 ng/mL of interleukin 13 (IL-13) (both from PeproTech) were added for another 16 h of treatment. […] After a 2-h incubation, an equal volume of RPMI supplemented with 20% heat-inactivated FBS was added, and cells were incubated for another 48 h. SEAP activity was accessed using the QUANTI-Blue™ Solution (Invivogen) to evaluate type I interferon protein levels: 150 μL of the colorimetric reagent was added to 50 μL of cell supernatant for 30 min, 37°C, followed by absorption measurement at 655 nm.

[2] = pH-dependent insertion into POPC liposome bilayer monitored by CD; assay type: physicochemical; conditions: CD ellipticity vs pH, 7 µM agent, 1.4 mM POPC, 25°C, Henderson-Hasselbalch fit
Procedure: The interactions of pHLIP-mMSA and 2pHLIP-dMSA with liposomes were investigated by recording the construct’s fluorescence and circular dichroism (CD) using a PC1 spectrofluorometer (ISS) and a MOS-450 spectrometer (Bio-Logic Science Instruments), respectively, with temperature control set to 25°C. Liposomes, constituting of large unilamellar vesicles were prepared by extrusion. 1-palmitoyl-2-oleoyl-sn-glycero-3-phosphocholine (POPC) lipids (Avanti Polar Lipids) in chloroform were desolvated on a rotary evaporator and dried under vacuum for a minimum of 2 h. The phospholipid film was rehydrated in 2 mM citrate phosphate buffer, pH 7.4, vortexed, and passed through the extruder (using a 50 nm membrane pore size) 21 times.
Fluorescence spectra were recorded from 310 nm to 390 nm at an excitation wavelength of 295 nm and 1.0 mm sized slits. […] CD spectra were recorded from 190 to 260 nm with a step size of 1 nm. […]
The pH-dependent insertion of pHLIP-mMSA or 2pHLIP-dMSA into the lipid bilayer of POPC liposomes was studied by monitoring changes in the molar ellipticity as a function of pH. After the addition of aliquots of citric acid, the pHs of solutions containing pHLIP-mMSA/2pHLIP-dMSA and POPC liposomes were measured using an Orion PerHecT ROSS Combination pH Micro Electrode and an Orion Dual Star pH and ISE Benchtop Meter. […]

CT26 tumors = assay: Cytokine levels in tumor and serum by ELISA; assay type: in vivo, Balb/c mice
Procedure: To establish levels of cytokines in blood and tumor samples, 5 × 10^4 CT26 cancer cells were injected SQ in 100 µL of growth medium into the right flank of female Balb/c mice. When tumors reached 250–500 mm^3 in volume, the mice received a single IP injection of 300 μM 500 µL 2pHLIP-dMSA or no injections. Animals were euthanized at 6- and 24-h post-injection, blood and tumors were collected. Blood samples were kept for 40 min at RT, centrifuged at 5,000 g for 20 min at +4°C and supernatant (serum) was collected. Tumors were frozen in liquid nitrogen. Both the serum and the tumor tissue samples were kept at −80°C until further processing and analysis. The tumor samples were processed while on ice, using a bullet blender (Next Advance) with 1 mm diameter zirconium silicate beads (Next Advance). The supernatant of the processed tumors was used for enzyme-linked immunoassay (ELISA) assays. Matched antibody pair kits for mouse TNF alpha (Sino Biological), mouse IL-6 (Abcam), mouse IFN gamma (Invitrogen), mouse IFN beta (Bio-Techne), and a precoated mouse IFN alpha kit (Invitrogen) were used. For TNF alpha and IFN beta the capture antibodies were diluted in PBS (Cytiva), while the IL-6 and IFN gamma capture antibodies were diluted in their respective coating buffers. The diluted capture antibodies were incubated in the plates overnight at +4°C and washed the next day with PBS/Tween washing buffer (Sigma-Aldrich). The TNF alpha plate was blocked using 2% BSA (Thermo-Scientific) diluted in washing buffer, the IFN beta plate was blocked using 1% BSA diluted in PBS, while the IFN alpha, IFN gamma, and IL-6 plates were blocked using their respective dilution buffers. Blocking was done for 2 h at RT on an orbital shaker at 200 rpm. After blocking, the plates were washed and then incubated with the diluted tumor and serum samples along with the corresponding standard solutions for each ELISA kit. The samples were incubated for 2 h at RT on an orbital shaker at 200 rpm. The TNF alpha plate was incubated for 1 h at RT with a diluted detection antibody conjugated with horseradish peroxidase (HRP). The IL-6, IFN alpha, IFN beta, and IFN gamma plates were incubated for 1 h at RT with a diluted detection antibody conjugated with biotin followed by incubation for 1 h at RT with their respective diluted HRP-streptavidin conjugates. All plates were washed and incubated with 3,3′,5,5′-tetramethylbenzidine (TMB) (Invitrogen) and peroxide solution mixed at a ratio of 1:1 (Thermo Scientific) for up to 20 min, then a stop solution (10% H2SO4) was added to the plates. The signal from the wells was quantified by absorbance measured at 450 nm using a Bio-Rad iMark microplate reader. Antibody standards were used to plot calibration curves.

[3] = single IP injection 300 µM 500 µL, 6 and 24 h

## ADQDNPWRAYLDLLFPTDTLLLDLLWCG [2pHLIP-dMSA]
[1]
  EC50: 200 nM
[2]
  cooperativity (n) of insertion into POPC bilayer: 1.2
  pK (mid-point) of insertion into POPC bilayer: 6.0
CT26 tumors; 6 h after single IP injection 300 µM 500 µL, returned to normal at 24 h
  IL-6 level in blood (Figure 4D, in words): slight increase
CT26 tumors; 6 h after single IP injection 300 µM 500 µL, vs untreated mice
  increase of TNF-α level in tumors: 23 fold
CT26 tumors; 24 h after single IP injection 300 µM 500 µL
  TNF-α level in tumors (in words): fell to a normal level
CT26 tumors; [3]
  level of IFN-α in tumors and serum (in words): did not change much
  level of IFN-γ in tumors and serum (in words): did not change much
CT26 tumors; single IP injection 300 µM 500 µL, treated and untreated mice
  TNF-α level in serum (in words): insignificant
CT26 tumors; single IP injection 300 µM 500 µL, two orders of magnitude lower than in tumors
  IFN-β level in serum (in words): slight increase
CT26 tumors; single IP injection 300 µM 500 µL, vs untreated mice
  increase of tumor level of IFN-β: 8 fold
